# Measured values as given in US4175123A, “Amino-sugar derivatives, process for their preparation and pharmaceutical composition thereof” (Bayer Aktiengesellschaft, priority 1976, dated 1979).
# Experiments:
# [1] = test system: glucosidase; experiment: Starch feeding test: postprandial blood sugar after oral starch + glucosidase inhibitor in fasting rats; assay type: in vivo, rat
# Experimental: (§1) The in vivo activity of the compound was tested on some examples using the experimental arrangement described in the following text.
# (§2) Oral administration of starch or sucrose causes a rise in the blood sugar in warm-blooded animals, provided that the carbohydrates are enzymatically degraded in the small intestine to monosaccharides. The inhibition of their enzymatic hydrolysis by glucosidase inhibitors causes a reduced rise in the blood sugar.
# (§3) In order to detect the action of glucosidase inhibitors, 6 fasting rats receive perorally, 1 g of broiled starch or 2.5 g of sucrose/kg in the form of an aqueous suspension or in the form of an aqueous solution (starch and sucrose control respectively). An equal number of rats receive the glucosidase inhibitor in the dose indicated, together with the same amount of the carbohydrate concerned. An equal volume of physiological sodium chloride solution is administered orally to a further six rats (control). After administration of the carbohydrate concerned±glucosidae inhibitor, the postprandial change in blood sugar is measured, at the times indicated, in blood from the postorbital venous plexus in an auto-analyser according to the method of W. S. Hoffmann [J biol. Chem 120, 51 (1937)].
# [2] = test system: small intestine of fasting male Wistar rats (glucose absorption); experiment: In vitro method for the inhibition of glucose absorption (small intestine rings, D-glucose-14C); design: species or system rat (male Wistar); settings: Rattus norvegicus, 2 min; 10 mg/ml; 2 minutes at 37° C., pH 7.4, D-glucose-14C 10 mg/ml
# Experimental: In vitro method for the inhibition of glucose absorption
# The upper part of the small intestine of fasting male Wistar rats is folded over and cut into rings about 3 mm wide. 10 of these rings (~150 mg moist weight) are incubated for 2 minutes at 37° C. in 5 ml of Krebs-Ringer bicarbonate buffer (pH 7.4) with D-glucose-^14 C (U) (10 mg/ml, 0.2 μCi/ml), with the addition of the active compounds. The washed and dried-off intestine rings are weighted, dissolved in 5 ml of Digestin (Merck)/isopropanol (1:1) and the radioactivity absorbed in the tissue is determined in a liquid scintillation counter. All values are corrected using the radioactivity absorbed in the tissue as D-mannitol-1-^14 C.
# In vitro inhibitions of the glucose absorption by some selected compounds (10 mg/ml): […]
# [3] = test system: glucosidase; experiment: Sucrose feeding test: postprandial blood sugar after oral sucrose + glucosidase inhibitor in fasting rats; assay type: in vivo, rat
# Experimental: as §1, §2, §3
structure (smiles),measurement,setting,value
"C[C@H]1O[C@H](O[C@H]2[C@H](O)[C@@H](O)[C@@H](O[C@H]3[C@H](O)[C@@H](O)[C@H](Oc4ccc(O)cc4)O[C@@H]3CO)O[C@@H]2CO)[C@H](O)[C@@H](O)[C@@H]1N[C@H]1C=C(CO)[C@@H](O)[C@H](O)[C@H]1O [Example 1, 8, p-Hydroxyphenyl-O-{C}-(1→4)-O-α-D-glcp-(1→4)-β-D- glucopyranoside]","Blood sugar ± standard deviation, 15 minutes","[1]; 0.65 mg/kg perorally + 1 g starch/kg, starch control 131 ± 7.2, fasting control 60 ± 4.2",112 ± 9.9 mg/dL
same,"Blood sugar ± standard deviation, 30 minutes","[1]; 0.65 mg/kg perorally + 1 g starch/kg, starch control 113 ± 9.2, fasting control 62 ± 3.4",109 ± 12 mg/dL
same,inhibition at 10000 µg/mL,[2],25 to 50%
same,"Blood sugar ± standard deviation, 15 minutes","[3]; 0.65 mg/kg perorally + 2.5 g sucrose/kg, sucrose control 128 ± 8.0, fasting control 60 ± 4.6",112 ± 3.1 mg/dL
same,"Blood sugar ± standard deviation, 30 minutes","[3]; 0.65 mg/kg perorally + 2.5 g sucrose/kg, sucrose control 133 ± 8.7, fasting control 64 ± 3.7",114 ± 6.3 mg/dL
same,"Blood sugar ± standard deviation, 45 minutes","[3]; 0.65 mg/kg perorally + 2.5 g sucrose/kg, sucrose control 134 ± 6.1, fasting control 73 ± 7.1",119 ± 9.4 mg/dL
same,"Blood sugar ± standard deviation, 60 minutes","[3]; 0.65 mg/kg perorally + 2.5 g sucrose/kg, sucrose control 119 ± 10, fasting control 66 ± 4.2",112 ± 4.3 mg/dL
"CCCCCCCCCCCCCCCCO[C@@H]1O[C@H](CO)[C@@H](O[C@H]2O[C@H](CO)[C@@H](O[C@H]3O[C@H](C)[C@@H](N[C@H]4C=C(CO)[C@@H](O)[C@H](O)[C@H]4O)[C@H](O)[C@H]3O)[C@H](O)[C@H]2O)[C@H](O)[C@H]1O [Example 4, 18, n-Hexadecyl-O-{C}-(1→4)-O-α-D-glcp-(1→4)-β-D-glucopyranoside]",inhibition at 10000 µg/mL,[2],> 50%
"C[C@H]1O[C@H](O[C@H]2[C@H](O)[C@@H](O)[C@@H](O[C@H]3[C@H](O)[C@@H](O)[C@H](Oc4ccc(C(C)(C)C)cc4)O[C@@H]3CO)O[C@@H]2CO)[C@H](O)[C@@H](O)[C@@H]1N[C@H]1C=C(CO)[C@@H](O)[C@H](O)[C@H]1O [Example 1, 9, p-tert-Butylphenyl-O-{C}-(1→4)-O-α-D-glcp-(1→4)-β-D glucopyranoside]",inhibition at 10000 µg/mL,[2],> 50%
same,"Blood sugar ± standard deviation, 15 minutes","[3]; 3.0 mg/kg perorally + 2.5 g sucrose/kg, sucrose control 134 ± 13, fasting control 71 ± 3.7",85 ± 4.8 mg/dL
same,"Blood sugar ± standard deviation, 30 minutes","[3]; 3.0 mg/kg perorally + 2.5 g sucrose/kg, sucrose control 116 ± 20, fasting control 70 ± 5.3",83 ± 7.9 mg/dL
same,"Blood sugar ± standard deviation, 45 minutes","[3]; 3.0 mg/kg perorally + 2.5 g sucrose/kg, sucrose control 125 ± 8.6, fasting control 77 ± 5.5",88 ± 3.4 mg/dL
same,"Blood sugar ± standard deviation, 60 minutes","[3]; 3.0 mg/kg perorally + 2.5 g sucrose/kg, sucrose control 112 ± 15, fasting control 78 ± 7.3",92 ± 9.4 mg/dL
"C[C@H]1O[C@H](O[C@H]2[C@H](O)[C@@H](O)[C@@H](O[C@H]3[C@H](O)[C@@H](O)[C@H](Oc4cccc(C(=O)O)c4)O[C@@H]3CO)O[C@@H]2CO)[C@H](O)[C@@H](O)[C@@H]1N[C@H]1C=C(CO)[C@@H](O)[C@H](O)[C@H]1O [Example 1, 5, m-Carboxyphenyl-O-{C}-(1→4)-O-α-D-glcp-(1→4)-β-D- glucopyranoside]",inhibition at 10000 µg/mL,[2],> 50%
"C[C@H]1O[C@H](O[C@H]2[C@H](O)[C@@H](O)[C@H](OCc3ccccc3)O[C@@H]2CO)[C@H](O)[C@@H](O)[C@@H]1N[C@H]1C=C(CO)[C@@H](O)[C@H](O)[C@H]1O [Compound 20, Benzyl-O-{C}-(1→4)-β-D-glucopyranoside]","Blood sugar ± standard deviation, 15 minutes","[1]; 10 mg/kg perorally + 1 g starch/kg, starch control 146 ± 19, fasting control 82 ± 12",87 ± 12 mg/dL
same,"Blood sugar ± standard deviation, 30 minutes","[1]; 10 mg/kg perorally + 1 g starch/kg, starch control 144 ± 8.9, fasting control 72 ± 10",83 ± 13 mg/dL
same,"Blood sugar ± standard deviation, 45 minutes","[1]; 10 mg/kg perorally + 1 g starch/kg, 45 minutes, starch control 120 ± 7.9, fasting control 102 ± 6.7",99 ± 17 mg/dL
same,"Blood sugar ± standard deviation, 60 minutes","[1]; 10 mg/kg perorally + 1 g starch/kg, 60 minutes, starch control 118 ± 6.9, fasting control 88 ± 7.4",111 ± 5.6 mg/dL
same,"Blood sugar ± standard deviation, 15 minutes","[3]; 10 mg/kg perorally + 2.5 g sucrose/kg, sucrose control 113 ± 6.5, fasting control 61 ± 13",83 ± 20 mg/dL
same,"Blood sugar ± standard deviation, 30 minutes","[3]; 10 mg/kg perorally + 2.5 g sucrose/kg, sucrose control 116 ± 9.2, fasting control 65 ± 3.9",85 ± 8.3 mg/dL
same,"Blood sugar ± standard deviation, 45 minutes","[3]; 10 mg/kg perorally + 2.5 g sucrose/kg, sucrose control 104 ± 12, fasting control 66 ± 6.9",73 ± 8.5 mg/dL
same,"Blood sugar ± standard deviation, 60 minutes","[3]; 10 mg/kg perorally + 2.5 g sucrose/kg, sucrose control 123 ± 8.1, fasting control 76 ± 3.7",69 ± 9.3 mg/dL
"C[C@H]1O[C@H](O[C@H]2[C@H](O)[C@@H](O)[C@@H](O[C@H]3[C@H](O)[C@@H](O)[C@H](Oc4ccc(C(=O)O)cc4)O[C@@H]3CO)O[C@@H]2CO)[C@H](O)[C@@H](O)[C@@H]1N[C@H]1C=C(CO)[C@@H](O)[C@H](O)[C@H]1O [Example 1, 7, p-Carboxyphenyl-O-{C}-(1→4)-O-α-D-glcp-(1→4)-β-D- glucopyranoside]","Blood sugar ± standard deviation, 15 minutes","[1]; 0.92 mg/kg perorally + 1 g starch/kg, starch control 131 ± 7.2, fasting control 60 ± 4.2",121 ± 7.7 mg/dL
same,"Blood sugar ± standard deviation, 30 minutes","[1]; 0.92 mg/kg perorally + 1 g starch/kg, starch control 113 ± 9.2, fasting control 62 ± 3.4",112 ± 4.3 mg/dL
same,inhibition at 10000 µg/mL,[2],25 to 50%
same,"Blood sugar ± standard deviation, 15 minutes","[3]; 0.92 mg/kg perorally + 2.5 g sucrose/kg, sucrose control 128 ± 8.0, fasting control 60 ± 4.6",110 ± 3.4 mg/dL
same,"Blood sugar ± standard deviation, 30 minutes","[3]; 0.92 mg/kg perorally + 2.5 g sucrose/kg, sucrose control 133 ± 8.7, fasting control 64 ± 3.7",118 ± 14 mg/dL
same,"Blood sugar ± standard deviation, 45 minutes","[3]; 0.92 mg/kg perorally + 2.5 g sucrose/kg, sucrose control 134 ± 6.1, fasting control 73 ± 7.1",112 ± 10 mg/dL
same,"Blood sugar ± standard deviation, 60 minutes","[3]; 0.92 mg/kg perorally + 2.5 g sucrose/kg, sucrose control 119 ± 10, fasting control 66 ± 4.2",117 ± 9.0 mg/dL
